Data from patent publication US11701372B2, “Inhalation formulations of 1'-cyano substituted carba-nucleoside analogs” (priority 2020, dated 2023).
Read-outs that look alike come from different tables or passages of the source. Marks after values point to notes of the source that are not given here.

Experiments:
[1] = Plasma PK of Formula Ia and metabolites after inhalation in African Green Monkeys; details: both, monkey, in vivo
Experimental: The average deposited dose was calculated at 0.168 mg/kg and 0.536 mg/kg, respectively. Plasma, peripheral blood mononuclear cells (PBMCs), trachea, bronchi, lung lobe, liver, kidney, nasal mucosa and nasopharyngeal mucosa samples were collected in this study.

[2] = Characterisation of milled suspension formulations (osmolarity, pH, particle size); assay type: physicochemical; details: 0.5% w/v poloxamer 237, 0.9% sodium chloride
Experimental: The vial capped, vortexed briefly, and then placed in a Bertin Instruments Precellys® Evolution blender. The blender was used to wet mill the mixture for 15×30 second cycles, with 120 second rest time between cycles. The blender speed was 7,200 rpm and cooling set was set to high. After milling, the milled suspension was separated from the beads by withdrawing the suspension from the vial using a syringe with a 1.5'' 25G needle. The recovered volume of the concentrated suspension was noted as 2.97 mL, and the concentration was measured as 25.8 mg/mL. The suspension was diluted with 2.14 mL of vehicle to obtain the target concentration of 15 mg/mL. […] The chiller set to 30° F., pump set to 100 rpm, and agitator set to 3000 rpm. The pump was primed with 100 mL of vehicle, and the first 80 mL of flowthough from priming was sent to waste. The mill was then set to recirculate as feeding continued with the addition of 150 mL of pre-mill formulation intermediate, followed by 25 mL of vehicle rinse. The formulation was allowed to recirculate though the mill for 1 hr, after which the flow was directed to a collection bottle. After 100 mL of concentrated suspension formulation was collected in the bottle, a vehicle chase was fed into the mill. Collection was stopped when the recovered volume reached 250 mL.

[3] = assay type: physicochemical
Experimental: For each conditions, the physical stability was measured as % LS and compared to % LS at T=0.

[4] = assay type: physicochemical; remark: listed apart in the source
Experimental: Samples for freeze-thaw cycling were also prepared and tested. For each condition, the physical stability was measured as % LS (label strength) and compared to % LS at T=0. […] The 7.5% SBECD formulation is also stable to freeze/thaw cycling (three cycles performed).

[5] = inhaled or intranasal, 0.168 mg/kg
[6] = inhaled or intranasal, 0.536 mg/kg
[7] = 15 mg/mL in water with 0.1% w/v HPMC
[8] = 7.5% SBECD w/v, 2-8° C., 24 h timepoint
[9] = 7.5% SBECD w/v, RT, 24 h timepoint

Compound `N#C[C@@]1(c2ccc3c(N)ncnn23)O[C@H](CO)[C@@H](O)[C@H]1O` [Compound A] has a concentration at 0.25 h ([1]; 0.168 mg/kg) of 3 ± 1 nM, a concentration at 1 h ([1]; 0.168 mg/kg) of 31 ± 7 nM and a concentration at 2 h ([1]; 0.168 mg/kg) of 25 ± 5 nM. It also gave a concentration at 24 h ([1]; 0.168 mg/kg) of 2 nM, a concentration at 0.75 h ([1]; 0.536 mg/kg) of 29 ± 8 nM and a concentration at 1.52 h ([1]; 0.536 mg/kg) of 58 ± 3 nM. For the same compound, the concentration at 2 h ([1]; 0.536 mg/kg) was 71 ± 11 nM, the concentration at 4 h ([1]; 0.536 mg/kg) was 43 ± 9 nM and the concentration at 8 h ([1]; 0.536 mg/kg) was 22 ± 5 nM. For the same compound, the concentration at 24 h ([1]; 0.536 mg/kg) was 5 ± 1 nM, the AUC(0-t) [1, 5] was 0.191 ± 0.03 µM·h and the Cmax [1, 5] was 31 ± 7 nM. The half-life [1, 5] was 7.58 ± 1.03 h, the AUC(0-t) [1, 6] was 0.539 ± 0.076 µM·h and the half-life [1, 6] was 7.1 ± 0.36 h.
For `CCC(CC)COC(=O)[C@H](C)N[P@](=O)(OC[C@H]1O[C@@](C#N)(c2ccc3c(N)ncnn23)[C@H](O)[C@@H]1O)Oc1ccccc1` [Formula Ia, (S)-2-ethylbutyl 2-(((S)-(((2R,3S,4R,5R)-5-(4-aminopyrrolo[2,1-f][1,2,4]triazin-7-yl)-5-cyano-3,4-dihydroxytetrahydrofuran-2-yl)methoxy)(phenoxy)phosphoryl)amino)propanoate], the osmolarity [2, 7] was 285 mOsm/kg, the pH [2, 7] was 6.89 and the “volume mean diameter particle size” value [2, 7] was 3.65 μm. The “particle size by polarized light microscopy” value ([2]; 100 mg/mL in water with 0.1% w/v HPMC) was less than 5 μm, the physical stability [3] was “stable” and the “% LS T0” value ([3]; pH 3.8) was 99 % LS. The “% LS After Stress, Hold” value ([3]; pH 3.8, 2-8° C. (1 wk)) was 99 % LS, the “% LS After Stress, Hold After Seeding” value ([3]; pH 3.8, 2-8° C. (1 wk)) was 88 % LS and the “% LS After Stress, Hold” value ([3]; pH 3.8, 2-8° C. (48 h)) was 99 % LS. The “% LS After Stress, Hold After Seeding” value ([3]; pH 3.8, 2-8° C. (48 h)) was 99 % LS, the “% LS After Stress, Hold” value ([3]; pH 3.8, 2-8° C. (72 h)) was 99 % LS and the “% LS After Stress, Hold After Seeding” value ([3]; pH 3.8, 2-8° C. (72 h)) was 99 % LS. For the same compound, the “% LS After Stress, Hold” value ([3]; pH 3.8, 2-8° C., 24 h) was 100 % LS, the “% LS After Stress, Hold After Seeding” value ([3]; pH 3.8, 2-8° C., 24 h) was 100 % LS and the “% LS After Stress, Freeze-thaw (3X)” value ([3]; pH 3.8, (+) seed) was 99 % LS. The “% LS After Stress, Freeze-thaw (3X)” value ([3]; pH 3.8, (−) seed) was 99 % LS, the “% LS After Stress, Hold” value ([3]; pH 3.8, RT (1 wk)) was 99 % LS and the “% LS After Stress, Hold After Seeding” value ([3]; pH 3.8, RT (1 wk)) was 65 % LS. For the same compound, the “% LS After Stress, Hold” value ([3]; pH 3.8, RT (24 h)) was 100 % LS, the “% LS After Stress, Hold After Seeding” value ([3]; pH 3.8, RT (24 h)) was 99 % LS and the “% LS After Stress, Hold” value ([3]; pH 3.8, RT (48 h)) was 99 % LS. The “% LS After Stress, Hold After Seeding” value ([3]; pH 3.8, RT (48 h)) was 99 % LS, the “% LS After Stress, Hold” value ([3]; pH 3.8, RT (72 h)) was 99 % LS and the “% LS After Stress, Hold After Seeding” value ([3]; pH 3.8, RT (72 h)) was 99 % LS. For the same compound, the “% LS T0” value ([3]; pH 4.0) was 100 % LS, the “% LS After Stress, Hold” value ([3]; pH 4.0, 2-8° C. (1 wk)) was 99 % LS and the “% LS After Stress, Hold” value ([3]; pH 4.0, 2-8° C. (48 h)) was 99 % LS. For the same compound, the “% LS After Stress, Hold After Seeding” value ([3]; pH 4.0, 2-8° C. (48 h)) was 79 % LS, the “% LS After Stress, Hold” value ([3]; pH 4.0, 2-8° C. (72 h)) was 100 % LS and the “% LS After Stress, Hold After Seeding” value ([3]; pH 4.0, 2-8° C. (72 h)) was 67 % LS. For the same compound, the “% LS After Stress, Hold” value ([3]; pH 4.0, 2-8° C., 24 h) was 100 % LS, the “% LS After Stress, Hold After Seeding” value ([3]; pH 4.0, 2-8° C., 24 h) was 96 % LS and the “% LS After Stress, Freeze-thaw (3X)” value ([3]; pH 4.0, (+) seed) was 99 % LS. The “% LS After Stress, Freeze-thaw (3X)” value ([3]; pH 4.0, (−) seed) was 99 % LS, the “% LS After Stress, Hold” value ([3]; pH 4.0, RT (1 wk)) was 98 % LS and the “% LS After Stress, Hold” value ([3]; pH 4.0, RT (24 h)) was 100 % LS. For the same compound, the “% LS After Stress, Hold After Seeding” value ([3]; pH 4.0, RT (24 h)) was 69 % LS, the “% LS After Stress, Hold” value ([3]; pH 4.0, RT (48 h)) was 99 % LS and the “% LS After Stress, Hold After Seeding” value ([3]; pH 4.0, RT (48 h)) was 60 % LS. The “% LS After Stress, Hold” value ([3]; pH 4.0, RT (72 h)) was 100 % LS, the “% LS After Stress, Hold After Seeding” value ([3]; pH 4.0, RT (72 h)) was 58 % LS and the “% LS (Initial)” value ([4]; 5% SBECD w/v) was 101 % LS. For the same compound, the “% LS After Stress, Hold” value ([4]; 5% SBECD w/v, 2-8° C. (48 h)) was 101 % LS, the “% LS After Stress, Hold After Seeding” value ([4]; 5% SBECD w/v, 2-8° C. (48 h)) was 80 % LS and the “% LS After Stress, Hold” value ([4]; 5% SBECD w/v, RT (48 h)) was 101 % LS. The “% LS After Stress, Hold After Seeding” value ([4]; 5% SBECD w/v, RT (48 h)) was 68 % LS, the “% LS After Stress, Freeze-thaw (3x)” value ([4]; 5% SBECD w/v, after seeding) was 69 % LS and the “% LS After Stress, Freeze-thaw (3x)” value ([4]; 5% SBECD w/v, without seeding) was 101 % LS. The “% LS (Initial)” value ([4]; 7.5% SBECD w/v) was 101 % LS, the “% LS After Stress, Hold” value [4, 8] was 104* % LS and the “% LS After Stress, Hold After Seeding” value [4, 8] was 103* % LS. For the same compound, the “% LS After Stress, Hold” value [4, 9] was 103* % LS, the “% LS After Stress, Hold After Seeding” value [4, 9] was 102* % LS and the “% LS After Stress, Freeze-thaw (3x)” value ([4]; 7.5% SBECD w/v, after seeding) was 97 % LS. The “% LS After Stress, Freeze-thaw (3x)” value ([4]; 7.5% SBECD w/v, without seeding) was 99 % LS, the “% LS (Initial)” value ([4]; 10% SBECD w/v) was 101 % LS and the “% LS After Stress, Hold” value ([4]; 10% SBECD w/v, 2-8° C. (48 h)) was 101 % LS. The “% LS After Stress, Hold After Seeding” value ([4]; 10% SBECD w/v, 2-8° C. (48 h)) was 99 % LS, the “% LS After Stress, Hold” value ([4]; 10% SBECD w/v, RT (48 h)) was 101 % LS and the “% LS After Stress, Hold After Seeding” value ([4]; 10% SBECD w/v, RT (48 h)) was 98 % LS. The “% LS After Stress, Freeze-thaw (3x)” value ([4]; 10% SBECD w/v, after seeding) was 98 % LS, the “% LS After Stress, Freeze-thaw (3x)” value ([4]; 10% SBECD w/v, without seeding) was 100 % LS and the “% LS (Initial)” value ([4]; 20% SBECD w/v) was 102 % LS. For the same compound, the “% LS After Stress, Hold” value ([4]; 20% SBECD w/v, 2-8° C. (48 h)) was 101 % LS, the “% LS After Stress, Hold After Seeding” value ([4]; 20% SBECD w/v, 2-8° C. (48 h)) was 101 % LS and the “% LS After Stress, Hold” value ([4]; 20% SBECD w/v, RT (48 h)) was 101 % LS. For the same compound, the “% LS After Stress, Hold After Seeding” value ([4]; 20% SBECD w/v, RT (48 h)) was 101 % LS, the “% LS After Stress, Freeze-thaw (3x)” value ([4]; 20% SBECD w/v, after seeding) was 100 % LS and the “% LS After Stress, Freeze-thaw (3x)” value ([4]; 20% SBECD w/v, without seeding) was 100 % LS.
